# Assay results taken from US7138361B2, “Herbicidal heterocycles” (E. I. du Pont de Nemours and Company, priority 2000, dated 2006).
# Assays:
# Assay type in all cases: in vivo
# [1] = tested on: smallflower flatsedge (Cyperus difformis); experiment: Test C flooded paddy test; settings: for Flatsedge plant response rating: Flooded Paddy, Rate 500 g/ha, scale 0 to 100, 0 no effect, 100 complete control; for Plant response rating, Flatsedge / Plant response rating (scale 0 to 100), Flatsedge: flooded paddy test; for Plant response rating, Flatsedge: scale 0 to 100 (0 no effect, 100 complete control); for Plant response rating (scale 0 to 100), Flatsedge: Rate 62 g/ha, visually evaluated after 12 to 14 days, 0 = no effect, 100 = complete control
# Method in brief: (§1)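 2-leaf-stage plants, flooded paddy; treated; greenhouse 12–14 days; compared with controls by eye; rated 0–100 (0 none, 100 complete control).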
# [2] = tested on: duck salad (Heteranthera limosa); experiment: Test C flooded paddy test; settings: for Ducksalad plant response rating: Flooded Paddy, Rate 500 g/ha, scale 0 to 100, 0 no effect, 100 complete control; for Plant response rating, Ducksalad / Plant response rating (scale 0 to 100), Ducksalad: flooded paddy test; for Plant response rating, Ducksalad: scale 0 to 100 (0 no effect, 100 complete control); for Plant response rating (scale 0 to 100), Ducksalad: Rate 62 g/ha, visually evaluated after 12 to 14 days, 0 = no effect, 100 = complete control
# Method in brief: as §1
# [3] = tested on: rice (Oryza saliva); experiment: Test C flooded paddy test; settings: for Rice plant response rating: Flooded Paddy, Rate 500 g/ha, scale 0 to 100, 0 no effect, 100 complete control; for Plant response rating, Rice / Plant response rating (scale 0 to 100), Rice: flooded paddy test; for Plant response rating, Rice: scale 0 to 100 (0 no effect, 100 complete control); for Plant response rating (scale 0 to 100), Rice: Rate 62 g/ha, visually evaluated after 12 to 14 days, 0 = no effect, 100 = complete control
# Method in brief: as §1
# [4] = tested on: barnyardgrass (Echinochloa crus-galli); experiment: Test C flooded paddy test; settings: for Barnyardgrass plant response rating: Flooded Paddy, Rate 500 g/ha, scale 0 to 100, 0 no effect, 100 complete control; for Plant response rating, Barnyardgrass / Plant response rating (scale 0 to 100), Barnyardgrass: flooded paddy test; for Plant response rating, Barnyardgrass: scale 0 to 100 (0 no effect, 100 complete control); for Plant response rating (scale 0 to 100), Barnyardgrass: Rate 62 g/ha, visually evaluated after 12 to 14 days, 0 = no effect, 100 = complete control
# Method in brief: as §1
# [5] = tested on: Surinam grass (Brachiaria decumbens); experiment: Test C preemergence; settings: for Plant response rating (0 to 100), Surinam grass: Rate 500 g/ha, visual evaluation after 12 to 14 days
# Method in brief: (§2)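 Preemergence: seeds sown then treated. Postemergence: plants 2–18 cm, 1- to 4-leaf. Both with surfactant-containing solvent formulation; visual injury scored 0–100 after 12–14 d.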
# [6] = tested on: lambsquarters (Chenopodium album); experiment: Test C preemergence; settings: for Plant response rating (0 to 100), Lambsquarters: Rate 500 g/ha, visual evaluation after 12 to 14 days
# Method in brief: as §2
# [7] = tested on: morningglory (Ipomoea hederacea); experiment: Test C preemergence; settings: for Plant response rating (0 to 100), Morningglory: Rate 500 g/ha, visual evaluation after 12 to 14 days
# Method in brief: as §2
# [8] = tested on: Nightshade; experiment: Test C preemergence
# [9] = tested on: yellow nutsedge (Cyperus esculentus); experiment: Test C preemergence; settings: for Plant response rating (0 to 100), Nutsedge: Rate 500 g/ha, visual evaluation after 12 to 14 days
# Method in brief: as §2
# [10] = tested on: common ragweed (Ambrosia elatior); experiment: Test C preemergence; settings: for Plant response rating (0 to 100), Ragweed, Common: Rate 500 g/ha, visual evaluation after 12 to 14 days
# Method in brief: as §2
# [11] = tested on: woolly cupgrass (Eriochloa villosa); experiment: Test C preemergence; settings: for Plant response rating (0 to 100), Cupgrass, Woolly: Rate 500 g/ha, visual evaluation after 12 to 14 days
# Method in brief: as §2
# [12] = tested on: johnsongrass (Sorghum halepense); experiment: Test C preemergence; settings: for Plant response rating (0 to 100), Johnsongrass: Rate 500 g/ha, visual evaluation after 12 to 14 days
# Method in brief: as §2
# [13] = tested on: corn (Zea mays); experiment: Test C preemergence; settings: for Plant response rating (0 to 100), Corn: Rate 500 g/ha, visual evaluation after 12 to 14 days
# Method in brief: as §2
# [14] = tested on: pigweed (Amaranthus retroflexus); experiment: Test C preemergence; settings: for Plant response rating (0 to 100), Pigweed: Rate 500 g/ha, visual evaluation after 12 to 14 days
# Method in brief: as §2
# [15] = tested on: giant foxtail (Setaria faberii); experiment: Test C preemergence; settings: for Plant response rating (0 to 100), Foxtail, Giant: Rate 500 g/ha, visual evaluation after 12 to 14 days
# Method in brief: as §2
# [16] = tested on: velvetleaf (Abutilon theophrasti); experiment: Test B preemergence
# Method in brief: (§3)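 Greenhouse test: chemicals are formulated in a surfactant-containing non-phytotoxic solvent and applied either preemergence to planted seeds or postemergence to plants 2 to 18 cm tall. Response is rated visually versus controls after 13 to 15 days, 0 meaning no effect and 100 complete control.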
# [17] = tested on: barnyardgrass (Echinochloa crus-galli); experiment: Test B preemergence
# Method in brief: as §3
# [18] = tested on: Sunflower; experiment: Test C preemergence; settings: Rate 62 g/ha, scale 0 to 100
# [19] = Rate 125 g/ha, scale 0 to 100, 0 no effect, 100 complete control
# [20] = preemergence, Rate 62 g/ha, scale 0 to 100
# [21] = preemergence, Rate 250 g/ha, scale 0 to 100, 0 no effect, 100 complete control
# [22] = Rate 250 g/ha, scale 0 to 100, 0 no effect, 100 complete control
# [23] = Preemergence, Rate 500 g/ha, scale 0 to 100, 0 no effect, 100 complete control
# [24] = preemergence, Rate 125 g/ha, scale of 0 to 100 where 0 is no effect and 100 is complete control, 13 to 15 days
compound,measurement,setting,value
CCC(CC)c1ccn(C2CCN(c3ccc(F)c(C(F)(F)F)c3)C2=O)n1 (stereo not shown) [Compound 144],Flatsedge plant response rating,[1],95
same,"Plant response rating, Flatsedge",[1]; Rate 125 g/ha,85
same,"Plant response rating, Flatsedge",[1]; Rate 250 g/ha,95
same,"Plant response rating (scale 0 to 100), Flatsedge",[1],85
same,Ducksalad plant response rating,[2],100
same,"Plant response rating, Ducksalad",[2]; Rate 125 g/ha,50
same,"Plant response rating, Ducksalad",[2]; Rate 250 g/ha,95
same,"Plant response rating (scale 0 to 100), Ducksalad",[2],50
same,Rice plant response rating,[3],75
same,"Plant response rating, Rice",[3]; Rate 125 g/ha,20
same,"Plant response rating, Rice",[3]; Rate 250 g/ha,45
same,"Plant response rating (scale 0 to 100), Rice",[3],20
same,Barnyardgrass plant response rating,[4],100
same,"Plant response rating, Barnyardgrass",[4]; Rate 125 g/ha,100
same,"Plant response rating, Barnyardgrass",[4]; Rate 250 g/ha,100
same,"Plant response rating (scale 0 to 100), Barnyardgrass",[4],100
same,"Plant response rating, Surinam grass",[5]; [19],0
same,"Plant response rating, Surinam grass",[5]; [20],0
same,"Plant response rating (0 to 100), Surinam grass",[5]; preemergence,90
same,"Plant response rating, Surinam grass",[5]; [21],0
same,"Plant response rating, Lambsquarters",[6]; [19],100
same,"Plant response rating, Lambsquarters",[6]; [20],100
same,"Plant response rating (0 to 100), Lambsquarters",[6]; preemergence,100
same,"Plant response rating, Lambsquarters",[6]; [21],100
same,"Plant response rating, Morningglory",[7]; [19],0
same,"Plant response rating (0 to 100), Morningglory",[7]; preemergence,30
same,"Plant response rating, Morningglory",[7]; [21],30
same,"Plant response rating, Nightshade","[8]; Rate 62 g/ha, scale 0 to 100",100
same,"Plant response rating, Nightshade",[8]; [19],100
same,"Plant response rating, Nightshade",[8]; [22],100
same,"Plant response rating, Nutsedge",[9]; [19],0
same,"Plant response rating, Nutsedge",[9]; [20],0
same,"Plant response rating (0 to 100), Nutsedge",[9]; preemergence,0
same,"Plant response rating, Nutsedge",[9]; [21],0
same,"Plant response rating, Ragweed, Common",[10]; [19],0
same,"Plant response rating, Ragweed, Common",[10]; [20],0
same,"Plant response rating (0 to 100), Ragweed, Common",[10]; preemergence,50
same,"Plant response rating, Ragweed, Common",[10]; [21],30
same,"Plant response rating, Cupgrass, Woolly",[11]; [19],100
same,"Plant response rating, Cupgrass, Woolly",[11]; [20],100
same,"Plant response rating (0 to 100), Cupgrass, Woolly",[11]; preemergence,100
same,"Plant response rating, Cupgrass, Woolly",[11]; [21],100
same,"Plant response rating, Johnsongrass",[12]; [19],90
same,"Plant response rating, Johnsongrass",[12]; [20],0
same,"Plant response rating (0 to 100), Johnsongrass",[12]; preemergence,100
same,"Plant response rating, Johnsongrass",[12]; [21],100
same,"Plant response rating, Corn",[13]; [19],50
same,"Plant response rating, Corn",[13]; [20],30
same,"Plant response rating (0 to 100), Corn",[13]; preemergence,60
same,"Plant response rating, Corn",[13]; [21],50
same,"Plant response rating, Pigweed",[14]; [19],100
same,"Plant response rating, Pigweed",[14]; [20],100
same,"Plant response rating (0 to 100), Pigweed",[14]; preemergence,100
same,"Plant response rating, Pigweed",[14]; [21],100
same,"Plant response rating, Foxtail, Giant",[15]; [19],100
same,"Plant response rating, Foxtail, Giant",[15]; [20],100
same,"Plant response rating (0 to 100), Foxtail, Giant",[15]; preemergence,100
same,"Plant response rating, Foxtail, Giant",[15]; [21],100
same,"Plant response rating, Velvetleaf",[16]; [23],0
same,"Plant response rating, Velvetleaf",[16]; [24],0
same,"Plant response rating, Barnyardgrass",[17]; [23],100
same,"Plant response rating, Barnyardgrass",[17]; [24],80
same,"Plant response rating, Sunflower",[18],40
CC(C)(C)c1ccn(C2OCN(c3cccc(OC(F)F)c3)C2=O)n1 (stereo not shown) [Compound 133],Flatsedge plant response rating,[1],100
same,"Plant response rating, Flatsedge",[1]; Rate 125 g/ha,100
same,"Plant response rating, Flatsedge",[1]; Rate 250 g/ha,100
same,"Plant response rating (scale 0 to 100), Flatsedge",[1],100
same,Ducksalad plant response rating,[2],100
same,"Plant response rating, Ducksalad",[2]; Rate 125 g/ha,100
same,"Plant response rating, Ducksalad",[2]; Rate 250 g/ha,100
same,"Plant response rating (scale 0 to 100), Ducksalad",[2],50
same,Rice plant response rating,[3],90
same,"Plant response rating, Rice",[3]; Rate 125 g/ha,70
same,"Plant response rating, Rice",[3]; Rate 250 g/ha,90
same,"Plant response rating (scale 0 to 100), Rice",[3],60
same,Barnyardgrass plant response rating,[4],100
same,"Plant response rating, Barnyardgrass",[4]; Rate 125 g/ha,90
same,"Plant response rating, Barnyardgrass",[4]; Rate 250 g/ha,100
same,"Plant response rating (scale 0 to 100), Barnyardgrass",[4],90
same,"Plant response rating, Surinam grass",[5]; [19],100
same,"Plant response rating, Surinam grass",[5]; [20],100
same,"Plant response rating (0 to 100), Surinam grass",[5]; preemergence,100
same,"Plant response rating, Surinam grass",[5]; [21],100
same,"Plant response rating, Lambsquarters",[6]; [19],100
same,"Plant response rating, Lambsquarters",[6]; [20],100
same,"Plant response rating (0 to 100), Lambsquarters",[6]; preemergence,100
same,"Plant response rating, Lambsquarters",[6]; [21],100
same,"Plant response rating, Morningglory",[7]; [19],0
same,"Plant response rating, Morningglory",[7]; [20],0
same,"Plant response rating (0 to 100), Morningglory",[7]; preemergence,30
same,"Plant response rating, Morningglory",[7]; [21],20
same,"Plant response rating, Nightshade","[8]; Rate 62 g/ha, scale 0 to 100",0
same,"Plant response rating, Nightshade",[8]; [19],0
same,"Plant response rating, Nightshade",[8]; [22],20
same,"Plant response rating, Nutsedge",[9]; [20],70
same,"Plant response rating (0 to 100), Nutsedge",[9]; preemergence,90
same,"Plant response rating, Nutsedge",[9]; [21],90
same,"Plant response rating, Ragweed, Common",[10]; [19],0
same,"Plant response rating, Ragweed, Common",[10]; [20],0
same,"Plant response rating (0 to 100), Ragweed, Common",[10]; preemergence,0
same,"Plant response rating, Ragweed, Common",[10]; [21],0
same,"Plant response rating, Cupgrass, Woolly",[11]; [19],100
same,"Plant response rating, Cupgrass, Woolly",[11]; [20],100
same,"Plant response rating (0 to 100), Cupgrass, Woolly",[11]; preemergence,100
same,"Plant response rating, Cupgrass, Woolly",[11]; [21],100
same,"Plant response rating, Johnsongrass",[12]; [19],100
same,"Plant response rating, Johnsongrass",[12]; [20],80
same,"Plant response rating (0 to 100), Johnsongrass",[12]; preemergence,100
same,"Plant response rating, Johnsongrass",[12]; [21],100
same,"Plant response rating, Corn",[13]; [20],100
same,"Plant response rating (0 to 100), Corn",[13]; preemergence,100
same,"Plant response rating, Corn",[13]; [21],100
same,"Plant response rating, Pigweed",[14]; [19],100
same,"Plant response rating, Pigweed",[14]; [20],50
same,"Plant response rating (0 to 100), Pigweed",[14]; preemergence,100
same,"Plant response rating, Pigweed",[14]; [21],100
same,"Plant response rating, Foxtail, Giant",[15]; [19],100
same,"Plant response rating, Foxtail, Giant",[15]; [20],90
same,"Plant response rating (0 to 100), Foxtail, Giant",[15]; preemergence,100
same,"Plant response rating, Foxtail, Giant",[15]; [21],100
same,"Plant response rating, Velvetleaf",[16]; [24],0
same,"Plant response rating, Barnyardgrass",[17]; [23],100
same,"Plant response rating, Barnyardgrass",[17]; [24],100
same,"Plant response rating, Sunflower",[18],0
